Laboratory results: ChEMBL document CHEMBL4177599, “The antitubercular activity of various nitro(triazole/imidazole)-based compounds” (Bioorg Med Chem, 2017)
Converted amounts (≈) assume the structure as drawn.

Columns and labels:
Type in all cases: functional, organism-based
[1] = tested on: Mycobacterium tuberculosis; experiment: Antitubercular activity against isoniazid-resistant Mycobacterium tuberculosis H37Rv INH-R1 harboring katG Y155 mutant after 5 days
[2] = tested on: Mycobacterium tuberculosis; experiment: Antitubercular activity against rifampicin-resistant Mycobacterium tuberculosis H37Rv RIF-R1 harboring rpoB S522L mutant after 5 days
[3] = tested on: Mycobacterium tuberculosis; experiment: Antitubercular activity against fluoroquinolone-resistant Mycobacterium tuberculosis H37Rv harboring gyrB D94N mutant after 5 days
[4] = tested on: Mycobacterium tuberculosis; experiment: Antitubercular activity against isoniazid-resistant Mycobacterium tuberculosis INH-R2 ATCC 35822 after 5 days; conditions: INH-R2 ATCC 35822, 120 h
[5] = tested on: Mycobacterium tuberculosis; experiment: Antitubercular activity against rifampicin-resistant Mycobacterium tuberculosis H37Rv RIF-R2 ATCC 35828 after 5 days; conditions: H37Rv RIF-R2 ATCC 35828, 120 h

SMILES | MIC [1] | MIC [2] | MIC [3] | MIC [4] | MIC [5] | IC50 [1] | IC90 [1] | IC50 [2] | IC90 [2] | IC50 [3] | IC90 [3] | IC50 [4] | IC90 [4] | IC50 [5] | IC90 [5]
C[C@H]1COc2c(N3CCN(C)CC3)c(F)cc3c(=O)c(C(=O)O)cn1c23.C[C@H]1COc2c(N3CCN(C)CC3)c(F)cc3c(=O)c(C(=O)O)cn1c23.O [LEVOFLOXACIN] | 1.1 µM | 0.85 µM | 14 µM | 1.3 µM | 1.4 µM |  |  |  |  |  |  |  |  |  | 
NNC(=O)c1ccncc1 [ISONIAZID] | >200 µM | 0.31 µM (≈ 0.0425 µg/mL) | 0.35 µM (≈ 0.048 µg/mL) | > 200 µM | 0.67 µM (≈ 0.0919 µg/mL) |  |  |  |  |  |  |  |  |  | 
O=C(Cn1cnc([N+](=O)[O-])n1)Nc1ccc(Oc2ccccc2)cc1 | 125 µM (≈ 42.4 µg/mL) | 133 µM (≈ 45.1 µg/mL) | 200 µM (≈ 67.9 µg/mL) | > 200 µM | 116 µM (≈ 39.4 µg/mL) | 73 µM | 130 µM | 70 µM | 150 µM | 70 µM | 130 µM | 66 µM | 110 µM | 55 µM | 170 µM
O=C(Cn1ccnc1[N+](=O)[O-])Nc1ccc(Oc2ccc(Cl)cc2)cc1 | >200 µM | >200 µM | >200 µM | > 200 µM | > 200 µM | > 100 µM | > 100 µM | 48 µM | > 100 µM | > 100 µM | > 100 µM | > 100 µM | > 100 µM | 56 µM | > 100 µM
O=C(CCn1cnc([N+](=O)[O-])n1)Nc1ccc(Oc2ccc(F)cc2)cc1 | 50 µM (≈ 18.6 µg/mL) | 25 µM (≈ 9.28 µg/mL) | 46 µM (≈ 17.1 µg/mL) | 36 µM (≈ 13.4 µg/mL) | 58 µM (≈ 21.5 µg/mL) | 29 µM | 65 µM | 16 µM | 23 µM | 26 µM | 48 µM | 19 µM | 37 µM | 21 µM | 53 µM
O=C(NCCCCn1cnc([N+](=O)[O-])n1)c1sc2ccccc2c1Cl | 7.5 µM (≈ 2.85 µg/mL) | 7.9 µM (≈ 3 µg/mL) | 7.1 µM (≈ 2.7 µg/mL) | 7.3 µM (≈ 2.77 µg/mL) | 6.4 µM (≈ 2.43 µg/mL) |  |  |  |  |  |  |  |  |  | 
O=C(Cn1cnc([N+](=O)[O-])n1)Nc1ccc(Oc2ccc(Cl)cc2)cc1 | 91 µM (≈ 34 µg/mL) | 98 µM (≈ 36.6 µg/mL) | 94 µM (≈ 35.1 µg/mL) | 55 µM (≈ 20.6 µg/mL) | 100 µM (≈ 37.4 µg/mL) | 54 µM | 76 µM | 58 µM | 91 µM | 56 µM | 84 µM | 36 µM | 54 µM | 55 µM | 150 µM
O=C(Cn1cnc([N+](=O)[O-])n1)Nc1ccc(N2CCCCC2)cc1 | 54 µM (≈ 17.8 µg/mL) | 36 µM (≈ 11.9 µg/mL) | 50 µM (≈ 16.5 µg/mL) | 48 µM (≈ 15.9 µg/mL) | 51 µM (≈ 16.8 µg/mL) | 34 µM | 53 µM | 25 µM | 41 µM | 32 µM | 47 µM | 30 µM | 44 µM | 36 µM | 49 µM
O=C(Cn1cnc([N+](=O)[O-])n1)Nc1cccc(-c2ccccc2)c1 | 48 µM (≈ 15.5 µg/mL) | 35 µM (≈ 11.3 µg/mL) | 28 µM (≈ 9.05 µg/mL) | 28 µM (≈ 9.05 µg/mL) | 33 µM (≈ 10.7 µg/mL) | 31 µM | 43 µM | 24 µM | 40 µM | 29 µM | 39 µM | 26 µM | 31 µM | 29 µM | 33 µM
O=C(Cn1cnc([N+](=O)[O-])n1)N1CCN(Cc2ccc(C(F)(F)F)cc2)CC1 | 48 µM (≈ 19.1 µg/mL) | 31 µM (≈ 12.3 µg/mL) | 28 µM (≈ 11.2 µg/mL) | 28 µM (≈ 11.2 µg/mL) | 45 µM (≈ 17.9 µg/mL) | 32 µM | 44 µM | 21 µM | 32 µM | 27 µM | 31 µM | 26 µM | 32 µM | 32 µM | 41 µM
CO[C@H]1/C=C/O[C@@]2(C)Oc3c(C)c(O)c4c(O)c(c(/C=N/N5CCN(C)CC5)c(O)c4c3C2=O)NC(=O)/C(C)=C\C=C\[C@H](C)[C@H](O)[C@@H](C)[C@@H](O)[C@@H](C)[C@H](OC(C)=O)[C@@H]1C [RIFAMPIN] | 0.012 µM (≈ 0.00988 µg/mL) | 7.2 µM (≈ 5.93 µg/mL) | >0.04 µM | 0.011 µM (≈ 0.00905 µg/mL) | > 50 µM |  |  |  |  |  |  |  |  |  | 
O=C(CCn1cnc([N+](=O)[O-])n1)Nc1cccc(-c2ccccc2)c1 | 15 µM (≈ 5.06 µg/mL) | 7.7 µM (≈ 2.6 µg/mL) | 13 µM (≈ 4.39 µg/mL) | 10 µM (≈ 3.37 µg/mL) | 12 µM (≈ 4.05 µg/mL) | 8.5 µM | 15 µM | 4.1 µM | 8 µM | 6.8 µM | 14 µM | 6.2 µM | 11 µM | 8.1 µM | 11 µM
